Source: PMC3548404 (Nature, 2010)

How the values were obtained:
[1] = biological target: T1, AtSLAC1 (Arabidopsis thaliana, UniProt Q9LD83); conditions: 30 mM CsCl bath, pH 5.6; permeant anion; no AtOST1
T1 sequence (Q9LD83 1-556): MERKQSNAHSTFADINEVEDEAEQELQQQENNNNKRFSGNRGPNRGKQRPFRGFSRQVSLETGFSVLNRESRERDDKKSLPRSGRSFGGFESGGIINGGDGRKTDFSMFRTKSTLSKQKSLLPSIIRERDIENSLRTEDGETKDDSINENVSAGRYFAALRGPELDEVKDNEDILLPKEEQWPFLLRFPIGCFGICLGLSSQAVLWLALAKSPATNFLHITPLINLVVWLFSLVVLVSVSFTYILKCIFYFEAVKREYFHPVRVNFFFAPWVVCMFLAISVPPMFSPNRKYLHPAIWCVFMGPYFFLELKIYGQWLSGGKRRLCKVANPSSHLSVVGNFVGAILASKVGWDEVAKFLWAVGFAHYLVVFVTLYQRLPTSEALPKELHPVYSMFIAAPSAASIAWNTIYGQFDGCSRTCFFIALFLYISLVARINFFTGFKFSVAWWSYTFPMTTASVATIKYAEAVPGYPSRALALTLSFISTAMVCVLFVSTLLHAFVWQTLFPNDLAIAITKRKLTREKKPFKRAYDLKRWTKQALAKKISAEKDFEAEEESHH

[2] = biological target: T1, AtSLAC1; test: two-electrode voltage clamp, Xenopus oocytes; assay type: cell-based; conditions: 50 mM sodium salt in bath, pH 5.6; permeant anion

| Compound | chloride current at -90 mV [1] | P[X]/P[Cl] [2] |
| --- | --- | --- |
| Cl [chloride] | We observed modest-sized chloride currents with wild-type AtSLAC1 cRNA | – |
| O=[N+]([O-])O [nitrate] | – | selective among anions, with greater permeability for nitrate than for chloride |
